Here are results for nine molecules from US10836764B2, “5-HT2C receptor agonists and compositions and methods of use” (Arena Pharmaceuticals, Inc., priority 2016, dated 2020).

Read-outs that look alike come from different tables or passages of the source.

The conditions of series [1]: add on treatment, non-depressed patients with poorly controlled epilepsy; cited from earlier work.
Series [2] addresses T1, 5-HT2C receptor (Homo sapiens (Human), UniProt P28335). Kind of series: DOI radioligand binding assay, 5-HT2C. The method, then:
(§1) For the compounds of Table A, the following procedure was used. HEK293 cells stably expressing recombinant 5-HT2 receptors were harvested, suspended in ice-cold phosphate buffered saline, pH 7.4 (PBS), and then centrifuged at 48,000 g for 20 min at 4° C. The resulting cell pellet was then re-suspended in wash buffer containing 20 mM HEPES, pH 7.4 and 0.1 mM EDTA, homogenized on ice using a Brinkman Polytron, and centrifuged (48,000 g for 20 min at 4° C.). The pellet was then resuspended in 20 mM HEPES, pH 7.4, homogenized on ice, and centrifuged (48,000 g for 20 min at 4° C.). Crude membrane pellets were stored at −80° C. until used for radioligand binding assays.
(§2) For the compounds of Table A, the following procedure was used. […] Experiments comprised addition of 95 μL of assay buffer (20 mM HEPES, pH 7.4, 10 mM MgCl2), 50 μL of membranes, 50 μL of radioligand stock, and 5 μL of test compound diluted in assay buffer to 96-well microtiter plates, which were then incubated for 1 h at room temperature. Assay incubations were terminated by rapid filtration through PerkinElmer F/C filtration plates under reduced pressure using a 96-well Packard filtration apparatus, followed by washing three times with ice cold assay buffer. Plates were then dried at 45° C. for a minimum of 2 h. Finally, 25 μL of BetaScint™ scintillation cocktail was added to each well and the plates were counted in a Packard TopCount® scintillation counter. In each competition study, test compounds were dosed at ten concentrations with triplicate determinations at each test concentration.

The target in series [3] is T2, 5-HT2B receptor (Homo sapiens (Human), UniProt P41595). Kind of series: DOI radioligand binding assay, 5-HT2B. The following applies: [125I]DOI competition, HEK293 cell membranes. The method, then: as §1, §2
The target in a further series is 5-HT2A receptor (Homo sapiens (Human), UniProt P28223). In words: DOI radioligand binding assay, 5-HT2A. Particulars: [125I]DOI competition, HEK293 cell membranes; read-out: DOI Binding 5HT2A. The method, then:
as §1, §2

Series [4] concerns the target T1, 5-HT2C receptor. In words: IP accumulation assay, 5-HT2C. In kind it is cell-based. The procedure: (§3) HEK293 cells expressing recombinant 5-HT2 receptors were added to sterile poly-D-lysine-coated 96-well microtiter plates (35,000 cells/well) and labeled with 0.6 μCi/well of [^3H]inositol in myoinositol-free DMEM for 18 h. Unincorporated [^3H]inositol was removed by aspiration and replaced with fresh myoinositol-free DMEM supplemented with LiCl (10 mM final) and pargyline (10 μM final). Serially diluted test compounds were then added and incubation was conducted for 2 h at 37° C. (5-HT2B, and 5-HT2A) and RT (5-HT2C). Incubations were then terminated by lysing cells with the addition of ice-cold 0.1 M formic acid followed by freezing at −80° C. After thawing, total [^3H]inositol phosphates were resolved from [^3H]inositol using AG1-X8 ion exchange resin (Bio-Rad) and [^3H]inositol phosphates were measured by scintillation counting using a Perkin Elmer TopCount® scintillation counter. All EC50 determinations were performed using 10 different concentrations and triplicate determinations were made at each test concentration.

Series [5] has as its target T2, 5-HT2B receptor. In words: IP accumulation assay, 5-HT2B. In kind it is cell-based. The procedure:
as §3

A short description of series [6]: Food intake in the male Sprague Dawley rat. In kind it is in vivo. Particulars: PO 1, 2 or 5 mg/kg, 1 hour following administration, relative to placebo. The method, then: Male Sprague Dawley rats (225-300 g) were housed three per cage in a temperature and humidity controlled environment (12 h:12 h light:dark cycle, lights on at 0600 h). At 1600 h on the day before the test, rats were placed in fresh cages and food was removed. On test day, rats were placed into individual cages with grid floors at 1000 h with no access to food. At 1130 h, rats (n=8) were administered either vehicle (20% hydroxypropyl-β-cyclodextrin) or test compound via oral gavage (PO, 1 mL/kg, with an amount of 1 mg/kg, 2 mg/kg or 5 mg/kg of test compound) 30 min prior to food presentation. Food intake was measured at 60 min after drug administration (30 min after food presentation).

For series [7] the following is noted: 10 mg BID, type 2 diabetes; cited from earlier work.
The conditions of series [8]: patients without diabetes, cited from earlier work.
For series [9] the following is noted: cited from earlier work.
For series [10] the following is noted: cited from earlier work. The source holds these as a separate data set.
Where [11] appears, read: patients with type 2 diabetes, BID.
[12] abbreviates: patients without type 2 diabetes.
Where [13] appears, read: pivotal phase 3 program, up to two years.

Sequence of 5-HT2A receptor (P28223 whole entry): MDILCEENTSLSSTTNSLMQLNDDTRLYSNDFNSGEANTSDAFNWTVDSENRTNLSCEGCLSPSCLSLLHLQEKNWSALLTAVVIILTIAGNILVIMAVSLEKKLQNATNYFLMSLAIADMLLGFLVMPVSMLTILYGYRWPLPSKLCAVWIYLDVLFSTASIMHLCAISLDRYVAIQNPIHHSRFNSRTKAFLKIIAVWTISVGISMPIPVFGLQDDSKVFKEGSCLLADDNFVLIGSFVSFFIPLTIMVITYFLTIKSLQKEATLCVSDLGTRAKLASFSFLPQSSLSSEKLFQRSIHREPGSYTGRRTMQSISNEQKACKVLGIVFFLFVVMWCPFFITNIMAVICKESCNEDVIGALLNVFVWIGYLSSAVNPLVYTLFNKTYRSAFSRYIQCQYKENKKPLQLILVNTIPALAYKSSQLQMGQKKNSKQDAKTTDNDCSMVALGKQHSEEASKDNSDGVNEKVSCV
T2 sequence (P41595 whole entry): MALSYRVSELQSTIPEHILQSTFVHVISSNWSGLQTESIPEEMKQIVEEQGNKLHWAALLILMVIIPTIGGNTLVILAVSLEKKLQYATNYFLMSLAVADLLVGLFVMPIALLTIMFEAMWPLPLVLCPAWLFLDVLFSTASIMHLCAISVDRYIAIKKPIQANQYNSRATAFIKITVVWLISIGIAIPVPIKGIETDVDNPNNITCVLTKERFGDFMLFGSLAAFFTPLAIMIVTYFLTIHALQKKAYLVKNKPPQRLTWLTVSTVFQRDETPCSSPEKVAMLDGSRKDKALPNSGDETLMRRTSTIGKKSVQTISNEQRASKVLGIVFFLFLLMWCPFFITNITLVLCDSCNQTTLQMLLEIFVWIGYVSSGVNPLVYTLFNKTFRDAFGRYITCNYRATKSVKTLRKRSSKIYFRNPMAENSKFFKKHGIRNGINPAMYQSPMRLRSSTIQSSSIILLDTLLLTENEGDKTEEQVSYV
T1 sequence (P28335 33-458): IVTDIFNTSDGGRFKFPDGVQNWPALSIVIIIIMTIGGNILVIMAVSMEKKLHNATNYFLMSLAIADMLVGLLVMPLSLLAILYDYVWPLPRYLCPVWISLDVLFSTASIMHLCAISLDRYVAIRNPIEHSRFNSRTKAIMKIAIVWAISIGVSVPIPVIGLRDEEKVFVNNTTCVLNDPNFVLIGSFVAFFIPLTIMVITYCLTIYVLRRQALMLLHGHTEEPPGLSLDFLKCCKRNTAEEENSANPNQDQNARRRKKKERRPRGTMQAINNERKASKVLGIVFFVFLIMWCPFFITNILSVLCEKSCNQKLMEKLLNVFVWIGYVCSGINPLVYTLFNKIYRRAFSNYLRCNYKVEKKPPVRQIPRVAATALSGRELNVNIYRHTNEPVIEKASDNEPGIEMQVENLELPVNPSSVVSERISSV

With `CN(C)CCCC1(c2ccc(F)cc2)OCc2cc(C#N)ccc21` (centres unmarked) [citalopram], in series [1], the “drop in median seizure frequency” value is given as 55.6%.

As to `c1cc(COCC2CCOCC2)c2c(n1)N1CCNC[C@H]1CC2` [Compound 133, (R)-4-(((tetrahydro-2H-pyran-4-yl)methoxy)methyl)-6,6a,7,8,9,10-hexahydro-5H-pyrazino[1,2-a][1,8]naphthyridine], the Ki was 1250 nM on 5-HT2C receptor [2] (read-out: DOI Binding 5HT2C), 844 nM at 5-HT2B receptor [3] and 1.67 µM at 5-HT2A receptor.

As to `Clc1ncnc2c1CC[C@@H]1CNCCCN21` [Compound 160, (R)-4-chloro-5,6,6a,7,8,9,10,11-octahydropyrimido[5′,4′:5,6]pyrido[1,2-a][1,4]diazepine], the Ki on 5-HT2C receptor [2] (read-out: DOI Binding 5HT2C) stood at 5560 nM; on 5-HT2B receptor [3], 1830 nM; at 5-HT2A receptor it was 100 µM.

A word on the EC50: it is the concentration that produces a half-maximal response. For the molecule `CC(C)Cc1ccnc2c1CC[C@@H]1CNCCN21` [Compound 114, (R)-4-isobutyl-6,6a,7,8,9,10-hexahydro-5H-pyrazino[1,2-a][1,8]naphthyridine], the Ki is 0.587 nM on 5-HT2C receptor [2] and 33 nM on 5-HT2B receptor [3]. In addition, the concentration giving a half-maximal response (EC50) came to 0.424 nM on 5-HT2C receptor [4] and 0.351 µM at 5-HT2B receptor [5].

In the case of `c1ccc(Cc2cncc3c2CC[C@@H]2CNCCN32)cc1` [Compound 175, (R)-4-benzyl-6,6a,7,8,9,10-hexahydro-5H-pyrazino[1,2-a][1,7]naphthyridine], the Ki on 5-HT2C receptor [2] was 0.52 nM; on 5-HT2B receptor [3] it was 270 nM. Moreover, the EC50 at 5-HT2C receptor [4] is 0.622 nM; at 5-HT2B receptor [5], 19.9 µM.

Take `CSc1nc(Cl)c2c(n1)N1CCCNC[C@H]1CC2` [Compound 159, (R)-4-chloro-2-(methylthio)-5,6,6a,7,8,9,10,11-octahydropyrimido[5′,4′:5,6]pyrido[1,2-a][1,4]diazepine]: the Ki on 5-HT2C receptor [2] (read-out: DOI Binding 5HT2C) worked out at 1600 nM; at 5-HT2B receptor [3] it was 272 nM; at 5-HT2A receptor it was 12.3 µM.

`FC(F)(F)CCc1ccnc2c1CC[C@@H]1CNCCN21` [Compound 152, (R)-4-(3,3,3-trifluoropropyl)-6,6a,7,8,9,10-hexahydro-5H-pyrazino[1,2-a][1,8]naphthyridine]: the cumulative food intake entry in [6] was “significantly decreased”.

Consider `C[C@H]1CNCCc2ccc(Cl)cc21` [lorcaserin, (R)-8-chloro-1-methyl-2,3,4,5-tetrahydro-1H-3-benzazepine], for which the “reduction in HbAlc” value in [7] was 0.9%. In addition, in [8] (one study), the HOMA-IR change is −0.4 and the fasting insulin change is −3.3 μIU/mL. Moreover, the “mean fasting glucose change” value in series [8] was -0.2 mg/dL. Besides, in series [9] (setting [11]), the “patients who decreased total daily dose of medications for dyslipidemia” value is listed as 5.5% and the “patients who increased use of medications for dyslipidemia” value is reported as 3.1%. Besides, in series [9] (patients with type 2 diabetes), the “decrease in mean daily doses of sulfonylureas and thiazolidinediones” value is listed as 16-24%; the “patients who decreased total daily dose of antihypertensive medications” value was 8.2%; the “patients who increased total daily dose of antihypertensive medications” value is recorded as 6.6%. Moreover, in series [9] (setting [12]), the “patients who decreased total daily dose of antihypertensive medications” value is listed as 2.2%, the “patients who decreased total daily dose of medications for dyslipidemia” value is 1.3%, the “patients who increased total daily dose of antihypertensive medications” value is reported as 2.2% and the “patients who increased use of medications for dyslipidemia” value was 2.6%. Also, in series [10] (phase 3 program), the “risk of cardiac valvulopathy” value was “did not increase”. Moreover, in [10] (setting [13]), the “patients achieved at least 5% weight loss” value is reported as “About two-thirds” and the “patients achieved at least 10% weight loss” value is on record as “over one-third”. For the same molecule, in series [10] (pivotal phase 3 program), the “average weight lost, of their weight” value was “about 8%”. For the same molecule, in series [10] (second phase 3 trial), the “average weight loss, top quartile of patients” value is on record as 35 pounds and the “average weight loss, top quartile of patients, of body weight” value is 16%.

For `Clc1ccc(-c2ccnc3c2CC[C@@H]2CNCCN32)nc1` [Compound 146, (R)-4-(5-chloropyridin-2-yl)-6,6a,7,8,9,10-hexahydro-5H-pyrazino[1,2-a][1,8]naphthyridine], the Ki is 3110 nM on 5-HT2C receptor [2] (read-out: DOI Binding 5HT2C), 1020 nM at 5-HT2B receptor [3] and 5.39 µM on 5-HT2A receptor.
